{"source": "ChEMBL document CHEMBL6078646", "about": "“Target Ligand Separation and Identification of Isoforsythiaside as a Histone Lysine-Specific Demethylase 1 Covalent Inhibitor Against Breast Cancer Metastasis” (J Med Chem, 2024)", "key": {"[1]": {"target": "T1, Lysine-specific histone demethylase 1A (Homo sapiens, UniProt O60341)", "test": "Inhibition of recombinant His-tagged LSD1 (157 to 852 residues) (unknown origin) expressed in Escherichia coli BL21 (DE3) cells using H3K4me2 peptide as substrate incubated for 30 mins by fluorescence microplate reader analysis"}, "[2]": {"test": "Toxicity in female Balb/c nude mouse xenografted with human MDA-MB-231 cells expressing luciferase assessed as appearance of kidney lesions at 12 to 50 mg/kg, ip administered every 3 days and measured after 30 days by H and E staining based analysis", "assay_type": "organism-based", "details": "in vivo, 720 h, dose 12-50 mg/kg, time 30 day"}, "MDA-MB-231 [3]": {"test_system": "MDA-MB-231", "test": "Antimetastatic activity against human MDA-MB-231 cells expressing luciferase xenografted in female Balb/c nude mouse assessed as reduction in fluorescence intensity in lungs at 12 mg/kg, ip administered every 3 days and measured on day 15 by bioluminescence imaging analysis relative to control", "assay_type": "functional", "set-up": "scale not given: the % may be the effect or the level left", "details": "time 15 day"}, "MDA-MB-231 [4]": {"test_system": "MDA-MB-231", "test": "Antimetastatic activity against LSD1 knockout human MDA-MB-231 cells xenografted in wild type zebrafish yolk sac assessed as inhibition of cell migration at 12.5 mg/L incubated for 3 days by fluorescence microscopic analysis", "assay_type": "functional, cell-based", "details": "time 3.0 day"}, "MDA-MB-231 [5]": {"test_system": "MDA-MB-231", "test": "Antimetastatic activity against LSD1 knockout human MDA-MB-231 cells xenografted in mouse model assessed as reduction in number of metastatic nodules in the lung measured after 27 days", "assay_type": "functional, cell-based", "details": "time 27.0 day"}, "[6]": {"test": "Half-life in male Sprague-Dawley rat at 10 mg/kg, ip measured at 0 to 1440 mins by LC-MS/MS analysis", "assay_type": "ADME, organism-based", "details": "in vivo, time 0-1440 min"}, "[7]": {"target": "T1, Lysine-specific histone demethylase 1A", "test": "Non-competitive inhibition of LSD1 (unknown origin) using H3K4me2 as substrate by Lineweaver-Burk plot analysis"}, "[8]": {"test": "Toxicity in female Balb/c mouse assessed as histological changes in lung at 50 mg/kg, ip administered every other day for 7 times by H and E staining based analysis", "assay_type": "organism-based", "details": "in vivo"}, "MDA-MB-231 [9]": {"test_system": "MDA-MB-231", "test": "Effect on LSD1 protein expression in human MDA-MB-231 cells at 4 to 32 uM by Western blot analysis", "assay_type": "functional, cell-based", "details": "dose 4-32 µM"}, "MDA-MB-231 [10]": {"test_system": "MDA-MB-231", "test": "(§1) Antimetastatic activity against human MDA-MB-231 cells expressing luciferase xenografted in female Balb/c nude mouse assessed as reduction in number of metastatic nodules in the lung at 50 mg/kg, ip administered every 3 days and measured after 30 days by H and E staining based histopathological analysis relative to control", "assay_type": "functional", "set-up": "scale not given: the % may be the effect or the level left", "details": "time 30 day"}, "MDA-MB-231 [11]": {"test_system": "MDA-MB-231", "test": "Inhibition of cell migration in human MDA-MB-231 cells incubated for 24 hrs by phase contrast microscopy based wound healing assay", "assay_type": "functional", "details": "dose 0-32 µM"}, "[12]": {"test": "Acute toxicity in female ICR mouse assessed as lethal dose administered intraperitoneally for 14 days", "details": "in vivo, route ip, time 14 day"}, "[13]": {"test": "Toxicity in female Balb/c nude mouse xenografted with human MDA-MB-231 cells expressing luciferase assessed as appearance of liver lesions at 12 to 50 mg/kg, ip administered every 3 days and measured after 30 days by H and E staining based analysis", "assay_type": "organism-based", "details": "in vivo, 720 h, dose 12-50 mg/kg, time 30 day"}, "[14]": {"target": "T1, Lysine-specific histone demethylase 1A", "test": "Inhibition of LSD1 in human MDA-MB-231 cells assessed as increase in H3K4me2 accumulation by Western blotting analysis", "assay_type": "cell-based", "details": "dose 0-32 µM"}, "[15]": {"test": "Toxicity in female Balb/c mouse assessed as effect on AST level at 50 mg/kg, ip administered every other day for 7 times", "assay_type": "organism-based", "details": "in vivo"}, "[16]": {"test": "Tmax in male Sprague-Dawley rat at 10 mg/kg, ip measured at 0 to 1440 mins by LC-MS/MS analysis", "assay_type": "ADME, organism-based", "details": "in vivo, time 0-1440 min"}, "[17]": {"test": "Toxicity in female Balb/c nude mouse xenografted with human MDA-MB-231 cells expressing luciferase assessed as abnormalities liver at 12 to 50 mg/kg, ip administered every 3 days and measured after 30 days by H and E staining based analysis", "assay_type": "organism-based", "details": "in vivo, 720 h, dose 12-50 mg/kg, time 30 day"}, "MDA-MB-231 [18]": {"test_system": "MDA-MB-231", "test": "Effect on H3K4me2 protein expression in LSD1 knockout human MDA-MB-231 cells at 16 uM by Western blot analysis", "assay_type": "functional, cell-based"}, "MDA-MB-231 [19]": {"test_system": "MDA-MB-231", "test": "Effect on N-cadherin protein expression in LSD1 knockout human MDA-MB-231 cells at 16 uM by Western blot analysis", "assay_type": "functional, cell-based"}, "[20]": {"target": "T1, Lysine-specific histone demethylase 1A", "test": "Stabilization of LSD1 in human MDA-MB-231 cells incubated for 24 hrs in presence of cycloheximide by Western blotting analysis", "assay_type": "cell-based"}, "[21]": {"target": "T1, Lysine-specific histone demethylase 1A", "test": "Inhibition of LSD1 (unknown origin) activity measured after 80-fold dilution by dilution assay"}, "[22]": {"test": "Toxicity in female Balb/c mouse assessed as effect on RBC level at 50 mg/kg, ip administered every other day for 7 times", "assay_type": "organism-based", "details": "in vivo"}, "[23]": {"test": "Toxicity in female Balb/c mouse assessed as histological changes in kidney at 50 mg/kg, ip administered every other day for 7 times by H and E staining based analysis", "assay_type": "organism-based", "details": "in vivo"}, "MDA-MB-231 [24]": {"test_system": "MDA-MB-231", "test": "Inhibition of epithelial to mesenchymal transition in human MDA-MB-231 cells assessed as downregulation of N-cadherin protein expression by Western blotting analysis", "assay_type": "functional, cell-based", "details": "dose 0-32 µM"}, "MDA-MB-231 [25]": {"test_system": "MDA-MB-231", "test": "Cytotoxicity against human MDA-MB-231 cells assessed as cell viability at 0 to 100 uM incubated for 24 hrs by MTT assay", "assay_type": "functional", "details": "dose 0-100 µM"}, "MDA-MB-231 [26]": {"test_system": "MDA-MB-231", "test": "Upregulation of RBMS3 protein expression in human MDA-MB-231 cells at 4 to 32 uM by Western blotting analysis", "assay_type": "functional, cell-based", "details": "dose 4-32 µM"}, "MDA-MB-231 [27]": {"test_system": "MDA-MB-231", "test": "Upregulation of H3K4me1 protein expression in human MDA-MB-231 cells by Western blot analysis", "assay_type": "functional, cell-based", "details": "dose 4-32 µM"}, "[28]": {"test": "Toxicity in female Balb/c mouse assessed as effect on ALT level at 50 mg/kg, ip administered every other day for 7 times", "assay_type": "organism-based", "details": "in vivo"}, "[29]": {"target": "T1, Lysine-specific histone demethylase 1A", "test": "Inhibition of LSD1 (unknown origin) at 0.32 to 6.40 uM", "details": "dose 0.32-6.4 µM, time 0-25 min"}, "[30]": {"test": "Toxicity in female Balb/c mouse assessed as effect on LDH level at 50 mg/kg, ip administered every other day for 7 times", "assay_type": "organism-based", "details": "in vivo"}, "MDA-MB-231 [31]": {"test_system": "MDA-MB-231", "test": "Upregulation of H3K4me2 protein expression in human MDA-MB-231 cells by Western blot analysis", "assay_type": "functional, cell-based", "details": "dose 4-32 µM"}, "Homo sapiens [32]": {"species_on_record": "Homo sapiens", "test": "Effect on LSD1/CoREST/HDAC1/HDAC2 (unknown origin) complex by coimmunoprecipitation analysis"}, "[33]": {"test": "Toxicity in female Balb/c mouse assessed as effect on WBC level at 50 mg/kg, ip administered every other day for 7 times", "assay_type": "organism-based", "details": "in vivo"}, "MDA-MB-231 [34]": {"test_system": "MDA-MB-231", "test": "Antimetastatic activity against human MDA-MB-231-Luc cells xenografted in female Balb/c nude mouse assessed as smaller metastatic nodules in lung at 12 to 50 mg/kg, ip administered every 3 days and measured after 30 days by H and E staining based analysis", "assay_type": "functional, organism-based", "details": "dose 12-50 mg/kg, time 30.0 day"}, "[35]": {"test": "Toxicity in female Balb/c mouse assessed as effect on BUN level at 50 mg/kg, ip administered every other day for 7 times", "assay_type": "organism-based", "details": "in vivo"}, "MDA-MB-231 [36]": {"test_system": "MDA-MB-231", "test": "Induction of LSD1 degradation in human MDA-MB-231 cells incubated for 12 hrs by Western blotting analysis", "assay_type": "cell-based"}, "MDA-MB-231 [37]": {"test_system": "MDA-MB-231", "test": "as §1, with “12” for “50”", "assay_type": "functional", "set-up": "scale not given: the % may be the effect or the level left", "details": "time 30 day"}, "[38]": {"target": "T1, Lysine-specific histone demethylase 1A", "test": "Non-competitive inhibition of LSD1 (unknown origin) in presence of FAD by Lineweaver-Burk plot analysis"}, "Homo sapiens [39]": {"species_on_record": "Homo sapiens", "test": "Binding affinity to recombinant LSD1 Ser817A mutant (unknown origin) by MST assay"}}, "note": "Calls of active or inactive are those of the source. The calls are words filed in the database; no cut-off is given here."}
{"compound": "C[C@@H]1O[C@H](OC[C@H]2O[C@@H](OCCc3ccc(O)c(O)c3)[C@H](O)[C@@H](OC(=O)/C=C/c3ccc(O)c(O)c3)[C@@H]2O)[C@H](O)[C@H](O)[C@H]1O", "values": [{"measurement": "IC50", "setting": "[1]", "value": 1.58, "unit": "µM"}, {"measurement": "Activity", "setting": "[2]", "value": "Non-toxic"}, {"measurement": "Activity", "setting": "MDA-MB-231 [3]", "value": 32.9, "unit": "%"}, {"measurement": "Activity", "setting": "MDA-MB-231 [4]", "value": "Active; No Significant Difference With Lsd1 Knockout Control Group"}, {"measurement": "Activity", "setting": "MDA-MB-231 [5]", "value": "Active"}, {"measurement": "half-life", "setting": "[6]", "value": 34.8, "unit": "min"}, {"measurement": "inhibition", "setting": "[7]", "value": "Active"}, {"measurement": "Activity", "setting": "[8]", "value": "Non-toxic"}, {"measurement": "Activity", "setting": "MDA-MB-231 [9]", "value": "inactive"}, {"measurement": "Activity", "setting": "MDA-MB-231 [10]", "value": 52.5, "unit": "%"}, {"measurement": "inhibition", "setting": "MDA-MB-231 [11]", "value": "Dose-dependent-effect"}, {"measurement": "LD50 at 336 h", "setting": "[12]", "value": "> 600", "unit": "mg/kg"}, {"measurement": "Activity", "setting": "[13]", "value": "Non-toxic"}, {"measurement": "inhibition", "setting": "[14]", "value": "Dose-dependent-effect"}, {"measurement": "Activity", "setting": "[15]", "value": "Non-toxic"}, {"measurement": "Tmax", "setting": "[16]", "value": 79.8, "unit": "min"}, {"measurement": "Activity", "setting": "[17]", "value": "Non-toxic"}, {"measurement": "Activity", "setting": "MDA-MB-231 [18]", "value": "inactive"}, {"measurement": "Activity", "setting": "MDA-MB-231 [19]", "value": "inactive"}, {"measurement": "Activity", "setting": "[20]", "value": "Active"}, {"measurement": "inhibition", "setting": "[21]", "value": "Active; Compound Exerts Inhibition In An Irreversible Manner"}, {"measurement": "Activity", "setting": "[22]", "value": "Non-toxic"}, {"measurement": "Activity", "setting": "[23]", "value": "Non-toxic"}, {"measurement": "inhibition", "setting": "MDA-MB-231 [24]", "value": "Dose-dependent-effect"}, {"measurement": "Activity", "setting": "MDA-MB-231 [25]", "value": ">90", "unit": "%"}, {"measurement": "Activity", "setting": "MDA-MB-231 [26]", "value": "Active"}, {"measurement": "Activity", "setting": "MDA-MB-231 [27]", "value": "Dose-dependent-effect"}, {"measurement": "Activity", "setting": "[28]", "value": "Non-toxic"}, {"measurement": "inhibition", "setting": "[29]", "value": "Time-dependent-effect"}, {"measurement": "Activity", "setting": "[30]", "value": "Non-toxic"}, {"measurement": "Activity", "setting": "MDA-MB-231 [31]", "value": "Dose-dependent-effect"}, {"measurement": "Activity", "setting": "Homo sapiens [32]", "value": "inactive"}, {"measurement": "Activity", "setting": "[33]", "value": "Non-toxic"}, {"measurement": "Activity", "setting": "MDA-MB-231 [34]", "value": "Active"}, {"measurement": "Activity", "setting": "[35]", "value": "Non-toxic"}, {"measurement": "Activity", "setting": "MDA-MB-231 [36]", "value": "Active"}, {"measurement": "Activity", "setting": "MDA-MB-231 [37]", "value": 7.1, "unit": "%"}, {"measurement": "inhibition", "setting": "[38]", "value": "Active"}, {"measurement": "Activity", "setting": "Homo sapiens [39]", "value": "inactive"}]}
